Structures are written as SMILES. “Also recorded” adds a separate entry of the source.

For the assay, the system named is AML-37 human LSC engrafted in Rag2−/−γc−/− mice. The experiment in a line: sAML PRIMAGRAFT model AML-37: FACS engraftment analysis and serial transplantation. The class given is in vivo, mouse. The protocol: All animal studies were performed in accordance with UCSD and NIH-equivalent ethical guidelines and were approved by the Institutional Animal Care and Use Committee (IACUC protocol # S06015). For all in vivo experiments, animals of both genders were utilized. Three AML PRIMAGRAFT™ models were established by transplanting AML LSC-enriched cell fractions (either CD34-selected or FACS-purified stem or progenitor cell fractions from primary patient samples) into immunocompromised Rag2^−/−γc^−/−[20] or NOD/SCID-IL2RG mice (Jackson Laboratory) constitutively expressing human SCF, GM-CSF and IL-3 (NSGS) (FIGS. 8A-8D). For all transplantations into Rag2^−/−γc^−/− animals, neonatal mice were transplanted with human cells intrahepatically as previously described, and for all transplantations into NSGS animals, sublethally irradiated (300 Rad) adult (6-8 weeks old) mice were transplanted intravenously with 1-2×10^5 CD34^+ human cells.
For in vivo treatments, a 10 mg/mL stock solution of 17S-FD-895 solubilized in DMSO was used. After randomization, AML-engrafted mice were dosed intravenously with 17S-FD-895 (5-10 mg/kg) or vehicle (for AML-08, vehicle control=15% DMSO in PBS; for AML-37, vehicle control=20% DMSO in PBS) three times over a two-week period, with the first dose given on day 1, the second on day 7, and the third on day 14. For preparation of RNA from human LSC-enriched populations, single cell suspensions from spleen and bone marrow were CD34 double-selected (over two LS selection columns, Miltenyi) and 1-2×10^5 cells were collected in lysis buffer or pooled according to treatment group for serial transplantation assays.
Mice transplanted with 1-2×10^5 CD34^+ AML LSC-enriched fractions or no-transplant controls were screened for human hematopoietic cell engraftment (CD45^+ cells) in peripheral blood by FACS starting at 7-10 weeks post transplant. At 7-28 weeks post-transplant (7-36 weeks old), mice were euthanized, and peripheral blood and single cell suspensions of hematopoietic organs were analyzed for human cell engraftment by FACS. Total cell suspensions from bone marrow and spleen were either transplanted immediately or CD34-selected for transplant into secondary recipient mice (1-2×10^5 cells per animal) to expand the cells in vivo. […] Secondary recipient mice were euthanized after 8-23 weeks, and cell suspensions from bone marrow and spleen were CD34-selected for transplant into tertiary recipients for 17S-FD-895 treatment.
The 17S-FD-895 dosing regimen was selected as the maximum number of doses possible for the treatment of three experimental groups with the amount of synthesized compound that was available, and is consistent with weekly IV dosing regimens used in clinical trials of spliceosome inhibitory compounds in patients with solid tumors. Animals were euthanized within two hours after delivery of the final dose of 17S-FD-895, and peripheral blood, spleens and bone marrows were collected for analysis of total human cell and stem and progenitor cell engraftment, and for RNA extraction for splice isoform-specific qRT-PCR.
Flow cytometric analysis was performed on single cell suspensions from each hematopoietic tissue essentially as for primary patient samples, and frequencies of total live human CD45^+ cells, and CD45^+CD34^+CD38^− Lin^− (stem) and CD45^+CD34^+CD38^+ Lin^− (progenitor) cells were determined in each tissue. Analysis of progenitor cell subpopulations was performed for AML-37, with GMP identified as CD123^+CD45RA^+, CMP as […] and megakaryocyte-erythroid progenitors (MEP) as […]. Inclusion/exclusion criteria were pre-established based on minimum CD45^+ cell engraftment rates of 1% in peripheral blood, as determined by previous PRIMAGRAFT™ experiments. […]

On to `CC[C@H](OC)[C@@H](C)[C@H]1O[C@@H]1[C@@H](O)[C@H](C)/C=C/C=C(\C)[C@H]1OC(=O)C[C@H](O)CC[C@@](C)(O)[C@@H](OC(C)=O)/C=C/[C@@H]1C` (stereo in doubt) [Formula 17S-FD-895, 17S-FD-895], for which the “common myeloid progenitor (CMP) frequency” value (AML-37, 5 or 10 mg/kg) was “slight increase”. The GMP frequency result (AML-37, 5 or 10 mg/kg, hematopoietic tissues) is recorded as “reduced GMP frequency; also recorded: significantly reduced”. Besides, the “human leukemic burden in serial transplant recipients” value (recipients of CD34+ cells from 10 mg/kg group versus vehicle controls) was “marked reduction; also recorded: marked decrease”. In addition, where the note is “spleens, 10 mg/kg group versus vehicle controls, p<0.05”, the “reduction of human stem cells (CD45+CD34+CD38− Lin−)” value was 68%. Moreover, the “reduction of human progenitor cells (CD45+CD34+CD38+ Lin−)” value (spleens, 10 mg/kg group versus vehicle controls, p=0.08) came out at 80%. The “human HSPC frequency” value (spleens, 10 mg/kg versus vehicle) is given as “decrease in human HSPC frequency”.
